{
  "source": "patent US20140099256A1",
  "about": "“RADIOACTIVE LUMINESCENT NANOPARTICLE COMPOSITIONS” (The Board of Regents of the University of Texas System, priority 2012, published 2014)",
  "assay_type_in_all_cases": "in vivo, BALB/c mice",
  "key": {"[1]": {"assay": "Biodistribution of Cu(II)-GSSG complex and GS-CuNPs after tail-vein injection", "conditions": "24 h after tail-vein injection, background copper deducted", "protocol": "(§1) FIGS. 2A to 2E show (A) Ex vivo fluorescent images of urine of control mice or mice injected with luminescent GS-CuNPs (λex=510 nm, λem=790 nm); (B) Copper contents (n=6) in the urine at different times post injection (p.i.); (C) Biodistribution of Cu(II)-GSSG complex and luminescent GS-CuNPs in BALB/c mice (n=6) 24 h after the tail-vein injection; (D) Liver-tourine ratios of Cu(II)-GSSG complex and GS-CuNPs at 24 h p.i; (E) Pharmacokinetics (n=3) of the renal clearable Cu(II)-GSSG complex and luminescent GS-CuNPs in 24 h p.i.\n(§2) The detailed biodistribution studies of mice injected with GS-CuNPs and Cu(II)-GSSG complexes were consistent with their renal clearance profiles (FIG. 2C). In view of the background of copper, the average copper contents in the various organs/tissues and urine from three BALB/c mice have been deducted. […] However, compared to free Cu ions that often bind to caeruloplasmin and hephaestin and mainly accumulate in the liver, both GS-CuNPs and Cu(II)-GSSG complexes had much lower accumulation in RES, which was because GSH minimized the serum protein absorption and render them the efficient renal clearance. […] As a result, liver-to-urine ratio (−0.16) of CuNPs is more than 4 times lower than that of Cu(II)-GSSG complex (FIG. 2D)."}, "[2]": {"assay": "Blood pharmacokinetics of Cu(II)-GSSG complex and GS-CuNPs", "conditions": "24 h p.i.", "protocol": "as §1, §2"}, "[3]": {"assay": "Renal clearance kinetics (copper content in urine) of GS-CuNPs and Cu(II)-GSSG complex", "protocol": "as §1\nAlthough “being small” is generally seen as an efficient approach to boost the clearance of biomaterials from the body, the avidity between materials and serum proteins also plays an important role in the excretion. Seemingly a dilemma, it is hard to know which factors in the renal excretion of GS-CuNPs and Cu(II)-GSSG complex are reliably important. As such, the renal clearance kinetics and biodistribution of GS-CuNPs and Cu(II)-GSSG complex were evaluated in BALB/c mice (FIGS. 2A and 2B). For GS-CuNPs, 78.5±3.5% of injected copper was excreted from the body into the urine after 24 h p.i., and over 60% of copper was actually eliminated from the body in the first 2 h p.i (FIG. 2B)."}},
  "data": [
    {"substance": "Cu(II)-GSSG complex", "values": [
      {"measurement": "copper found in the liver", "setting": "[1]", "result": "29.6±8.1", "unit": "% ID"},
      {"measurement": "copper found in the spleen", "setting": "[1]", "result": "~0.1", "unit": "% ID"},
      {"measurement": "distribution half-life t½α", "setting": "[2]", "result": "0.228 ± 0.0167", "unit": "h"},
      {"measurement": "terminal elimination half-life (t½β)", "setting": "[2]", "result": "4.93 ± 0.94", "unit": "h"},
      {"measurement": "additional increase in urine excretion of copper metal", "setting": "[3]; after 2 h", "result": "−18", "unit": "%"},
      {"measurement": "copper found in the urine", "setting": "[3]; at 2 h p.i.", "result": 22, "unit": "% ID"}
    ]}
  ]
}
